One test concerns the target T1, human 15-PGDH (Homo sapiens, UniProt P15428).
T1 construct: purchased R&D System 5660-DH
T1 sequence (P15428 1-266): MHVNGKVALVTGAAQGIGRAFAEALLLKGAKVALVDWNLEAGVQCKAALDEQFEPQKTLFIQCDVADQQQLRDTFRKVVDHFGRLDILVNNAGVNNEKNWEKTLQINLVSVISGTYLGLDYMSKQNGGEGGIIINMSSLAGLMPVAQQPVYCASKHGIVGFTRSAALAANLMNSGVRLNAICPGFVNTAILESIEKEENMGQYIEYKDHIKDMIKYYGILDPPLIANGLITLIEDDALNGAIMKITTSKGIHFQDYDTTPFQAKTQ
The test can be described thus: Evaluation of 15-PGDH inhibitory activity (fluorescence enzyme assay, NAD+/PGE2). The following applies: human 15-PGDH enzyme, fluorescence Vmax. It is filed as biochemical. The method, then: 15-PGDH inhibition activity of Example compounds was measured as follows. 6.7 ng of human 15-PGDH (R&D System# 5660-DH) enzyme (10 µL) was added to a black 96 well plate, 60 µL of buffer (50 mM Tris-HCl, pH 7.5, 0.01% Tween 20) was added, and 10 µL of 200 µM β-Nicotinamide adenine dinucleotide sodium salt (Sigma, Cat# N0632-5G) was added. 10 µL of (10x) compound solution in DMSO was added and reacted for 10 minutes at room temperature.

In a further test the test system is A549 cells. Kind of test: Measurement of PGE2-increasing activity in A549 cells (IL-1β stimulated, PGE2 quantified in supernatant). It is filed as cell-based. As to conditions: Homo sapiens, 24 h; concentration of 1 µM of each compound; IL-1β treated A549 cells; read-out: Increased PGE2 production in A549 cells. In a few lines:
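A549 cells grown 24 h in F12K with 10% FBS, then switched to serum-free medium with or without IL-1β and compound (0.1% DMSO final). After 24 h at 37 °C, 5% CO2, supernatant PGE2 quantified by immunoassay.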

The term IC50 denotes the midpoint of a concentration-inhibition curve. A low value points to higher potency. Take `O=C1NC(=O)/C(=C/c2cccc(-c3cccc4c(C(=O)N5CCCCC5)cnn34)c2)S1` [Example 119, (Z)-5-(3-(3-(piperidine-1-carbonyl)pyrazolo[1,5-a]pyridin-7-yl)benzylidene)thiazolidine-2,4-dione]: the IC50 against human 15-PGDH is not above 100 nM. Moreover, the fold induction at 1 µM in the test on A549 cells was more than 1.5.

At human 15-PGDH, `O=C(c1cnn2c(-c3cnc(N4CCOC4=O)nc3)cccc12)N1CCCCC1` [Example 308, 3-(5-(3-(piperidine-1-carbonyl)pyrazolo[1,5-a]pyridin-7-yl)pyrimidin-2-yl)oxazolidin-2-one] had an IC50 not above 100 nM. For the same molecule, the fold induction at 1 µM with A549 cells is more than 1.5.

For `O=C(NCC1CC1)c1cncc(-c2cccc3c(C(=O)N4CCCCC4)cnn23)c1` [Example 46, N-(cyclopropylmethyl)-5-(3-(piperidine-1-carbonyl)pyrazolo[1,5-a]pyridin-7-yl)nicotinamide], the IC50 against human 15-PGDH is not above 100 nM. Moreover, the fold induction at 1 µM in the test on A549 cells is more than 1.5.

Molecule `CC(C)N1CCN(C(=O)c2ccc(-c3cccc4c(C(=O)N5CCCCC5)cnn34)cn2)CC1` [Example 84, (4-isopropylpiperazin-1-yl)(5-(3-(piperidine-1-carbonyl)pyrazolo[1,5-a]pyridin-7-yl)pyridin-2-yl)methanone] returned a 50% inhibitory concentration (IC50) against human 15-PGDH not above 100 nM. Further, the fold induction at 1 µM with A549 cells was more than 1.5.

`Cc1noc(C)c1-c1ccc(-c2cccc3c(C(=O)N4CCCCC4)cnn23)cc1` [Example 324, [7-[4-(3,5-dimethylisoxazol-4-yl)phenyl]pyrazolo[1,5-a]pyridin-3-yl]-(1-piperidyl)methanone] yielded a concentration for half-maximal inhibition (IC50) on human 15-PGDH not above 100 nM. Further, in the test with A549 cells, the fold induction at 1 µM is more than 1.5.

Molecule `O=C(Nc1ncc(-c2cccc3c(C(=O)N4CCCCC4)cnn23)cc1Cl)c1cccnc1` [Example 301, N-(3-chloro-5-(3-(piperidine-1-carbonyl)pyrazolo[1,5-a]pyridin-7-yl)pyridin-2-yl)nicotinamide] gave a half-inhibitory concentration (IC50) on human 15-PGDH not above 100 nM. Further, the fold induction at 1 µM in the test with A549 cells was more than 1.5.

`N#Cc1ccc(Nc2cccc3c(C(=O)N4CCCCC4)cnn23)cc1` [Example 146, 4-((3-(piperidine-1-carbonyl)pyrazolo[1,5-a]pyridin-7-yl)amino)benzonitrile] registered an IC50 against human 15-PGDH not above 100 nM. The fold induction at 1 µM with A549 cells was more than 1.5.

Consider `Cc1nc(-c2cc(N)cc(-c3cccc4c(C(=O)N5CCCCC5)cnn34)c2)no1` [Example 343, (7-(3-amino-5-(5-methyl-1,2,4-oxadiazol-3-yl)phenyl)pyrazolo[1,5-a]pyridin-3-yl)(piperidin-1-yl)methanone], for which the IC50 against human 15-PGDH was not above 100 nM. Further, the fold induction at 1 µM in the test on A549 cells is more than 1.5.

On to `O=C1NCCc2ccc(-c3cccc4c(C(=O)N5CCCCC5)cnn34)cc21` [Example 131, 7-(3-(piperidine-1-carbonyl)pyrazolo[1,5-a]pyridin-7-yl)-3,4-dihydroisoquinolin-1(2H)-one], for which, at human 15-PGDH, the IC50 was not above 100 nM. Also, the fold induction at 1 µM in the test with A549 cells was more than 1.5.

Consider `O=C(c1cnn2c(-c3ccc4c(=O)[nH]ccc4c3)cccc12)N1CCCCC1` [Example 138, 6-(3-(piperidine-1-carbonyl)pyrazolo[1,5-a]pyridin-7-yl)isoquinolin-1(2H)-one], for which, at human 15-PGDH, the IC50 was not above 100 nM. Besides, in the test with A549 cells, the fold induction at 1 µM is more than 1.5.

On human 15-PGDH, `Cc1noc(C)c1-c1cc(-c2cccc3c(C(=O)N4CCCCC4)cnn23)cc(N2CCOCC2)n1` [Example 371, (7-(2-(3,5-dimethylisoxazol-4-yl)-6-morpholinopyridin-4-yl)pyrazolo[1,5-a]pyridin-3-yl)(piperidin-1-yl)methanone] came in with a half-maximal inhibitory concentration (IC50) not above 100 nM. Further, in the test on A549 cells, the fold induction at 1 µM was more than 1.5.

`O=C(NCc1cncs1)c1cncc(-c2cccc3c(C(=O)N4CCCCC4)cnn23)c1` [Example 57, 5-(3-(piperidine-1-carbonyl)pyrazolo[1,5-a]pyridin-7-yl)-N-(thiazol-5-ylmethyl)nicotinamide] returned an IC50 against human 15-PGDH not above 100 nM. The fold induction at 1 µM with A549 cells is more than 1.5.
